# Patent publication US12552758B2, “Inhibitors of MLH1 and/or PMS2 for cancer treatment” (NeoPhore Limited, priority 2020, dated 2026)
# Legend:
# [1] = molecular target: recombinant N-terminal MLH1 (residues 15-340) (Homo sapiens (Human), UniProt P40692); test: Fluorescence polarisation assay for MLH1 (protocol for all Examples except Examples 64, 76, 90 and 95); format: binding; conditions: FP probe displacement; 100 nM N-terminal MLH1, 5 nM probe compound, read after 15 minutes; all Examples except 64, 76, 90 and 95
# Experimental: Fluorescence Polarisation Assay for MLH1 (Protocol for all Examples Except Examples 64, 76, 90 and 95)
# (§1) Test compounds, as 10 mM DMSO stocks, were dispensed into a Black Fluotrac 200 384 well medium binding plate (Greiner Bio-One, item number 781076) using a Labcyte Echo acoustic liquid handler. For single point screening, test compounds were added to wells in columns 1-22 whilst DMSO was added to wells in columns 23 and 24 in order to normalise the plate. For potency determination, serial dilutions of test compounds were added to wells in columns 3-22 and DMSO volume was normalised across the plate.
# 20 μL assay buffer was added to all wells in columns 1 and 24 (column 24 only for single point screening) using a MultiDrop Combi (ThermoFisher). Plates were centrifuged for 1 minute at 250×g and were incubated at room temperature for 30 minutes prior to the addition of 20 μL of 2×(10 nM) of 5-((5-(4-((2-(2,4-dihydroxy-5-isopropylbenzoyl)isoindolin-5-yl)methyl)piperazin-1-yl)pentyl)carbamoyl)-2-(6-(dimethylamino)-3-(dimethyliminio)-3H-xanthen-9-yl)benzoate (referred to hereinafter as “probe compound”) in assay buffer (prepared from a 100 μM DMSO stock) with a MultiDrop Combi (ThermoFisher). The final concentration of N-terminal MLH1 was 100 nM and the final concentration of probe compound was 5 nM.
# (§2) Compound plates were centrifuged for 1 minute at 250×g for 1 minute and were incubated at room temperature for 15 minutes before being read on a PheraStar FSX (fitted with 384-well aperture spoon and 540 590 590 FP optic module). The gain and focus were adjusted before each plate was read so that the polarisation of a no enzyme control (column 24) was equal to 35 mP. Data were normalised against the no inhibitor controls (column 23) and no enzyme controls (column 24).
# [2] = molecular target: recombinant N-terminal PMS2 (residues 1-365) (Homo sapiens (Human), UniProt P54278); test: Fluorescence polarisation assay for PMS2; format: binding; conditions: FP probe displacement; 10 nM N-terminal PMS2, 5 nM probe compound, read after 1 hour
# Experimental: Fluorescence Polarisation Assay for PMS2
# as §1
# 20 μL assay buffer was added to all wells in columns 1 and 24 (column 24 only for single point screening) using a MultiDrop Combi (ThermoFisher). Plates were centrifuged for 1 minute at 250×g and were incubated at room temperature for 30 minutes prior to the addition of 20 μL of 2×([…]) of 5-((5-(4-((2-(2,4-dihydroxy-5-isopropylbenzoyl)isoindolin-5-yl)methyl)piperazin-1-yl)pentyl)carbamoyl)-2-(6-(dimethylamino)-3-(dimethyliminio)-3H-xanthen-9-yl)benzoate (referred to hereinafter as “probe compound”) in assay buffer (prepared from a 100 μM DMSO stock) with a MultiDrop Combi (ThermoFisher). The final concentration of N-terminal PMS2 was 10 nM and the final concentration of probe compound was 5 nM.
# as §2, with “1 hour” for “15 minutes”
# recombinant N-terminal PMS2 (residues 1-365), sequence (P54278 1-365): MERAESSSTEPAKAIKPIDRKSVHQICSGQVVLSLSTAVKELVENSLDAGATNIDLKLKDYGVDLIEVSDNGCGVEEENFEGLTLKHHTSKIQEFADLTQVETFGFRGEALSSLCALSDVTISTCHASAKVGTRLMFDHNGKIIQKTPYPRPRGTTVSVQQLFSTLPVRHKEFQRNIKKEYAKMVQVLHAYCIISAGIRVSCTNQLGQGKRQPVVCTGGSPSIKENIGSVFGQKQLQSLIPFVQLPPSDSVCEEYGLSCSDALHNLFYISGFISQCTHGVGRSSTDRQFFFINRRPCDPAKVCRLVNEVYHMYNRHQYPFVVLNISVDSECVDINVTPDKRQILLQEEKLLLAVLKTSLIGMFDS
# recombinant N-terminal MLH1 (residues 15-340), sequence (P40692 15-340): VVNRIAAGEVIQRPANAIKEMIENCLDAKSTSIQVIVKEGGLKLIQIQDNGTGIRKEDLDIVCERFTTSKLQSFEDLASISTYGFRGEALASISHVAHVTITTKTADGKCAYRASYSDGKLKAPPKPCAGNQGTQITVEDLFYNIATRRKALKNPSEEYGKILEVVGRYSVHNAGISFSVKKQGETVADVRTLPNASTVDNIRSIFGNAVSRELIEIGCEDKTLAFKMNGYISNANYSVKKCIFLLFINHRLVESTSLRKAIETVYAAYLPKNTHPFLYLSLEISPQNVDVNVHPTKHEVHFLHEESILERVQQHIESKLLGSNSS
Structure (SMILES),IC50 [1],IC50 [2]
"Cc1cccc(COc2cc(O)cc(O)c2C(=O)N2Cc3cccnc3C2)c1 [Example 32, 5,7-dihydropyrrolo[3,4-b]pyridin-6-yl-[2,4-dihydroxy-6-(m-tolylmethoxy)phenyl]methanone]",1 to 10 µM,< 1 µM
"Cc1c(O)cc(O)c(C(=O)N2Cc3cccnc3C2)c1OCc1ccccn1 [Example 33, 5,7-dihydropyrrolo[3,4-b]pyridin-6-yl-[4,6-dihydroxy-3-methyl-2-(2-pyridylmethoxy)phenyl]methanone]",> 10 µM,1 to 10 µM
"Cc1c(O)cc(O)c(C(=O)N2Cc3ccccc3C2)c1OCc1ccccn1 [Example 34, [4,6-dihydroxy-3-methyl-2-(2-pyridylmethoxy)phenyl]-isoindolin-2-yl-methanone]",> 10 µM,1 to 10 µM
"O=C(c1c(O)cc(O)cc1OCc1ccccn1)N1Cc2cccnc2C1 [Example 35, 5,7-dihydropyrrolo[3,4-b]pyridin-6-yl-[2,4-dihydroxy-6-(2-pyridylmethoxy)phenyl]methanone]",1 to 10 µM,1 to 10 µM
"Cc1c(O)cc(O)c(C(=O)N2CCc3ccccc3C2)c1OCc1ccccc1 [Example 36, (2-benzyloxy-4,6-dihydroxy-3-methyl-phenyl)-(3,4-dihydro-1H-isoquinolin-2-yl)methanone]",> 10 µM,< 1 µM
"O=C(c1c(O)cc(O)cc1OCc1ccccn1)N1Cc2ccccc2C1 [Example 37, [2,4-dihydroxy-6-(2-pyridylmethoxy)phenyl]-isoindolin-2-yl-methanone]",1 to 10 µM,1 to 10 µM
"Cc1c(O)cc(O)c(C(=O)N2Cc3cccc(CO)c3C2)c1OCc1ccccc1 [Example 39, (2-benzyloxy-4,6-dihydroxy-3-methyl-phenyl)-[4-(hydroxymethyl)isoindolin-2-yl]methanone]",> 10 µM,< 1 µM
"Cc1c(O)cc(O)c(C(=O)N2Cc3ccc(CN4CCN(C)CC4)cc3C2)c1OCc1ccccc1 [Example 40, (2-benzyloxy-4,6-dihydroxy-3-methyl-phenyl)-[5-[(4-methylpiperazin-1-yl)methyl]isoindolin-2-yl]methanone]",> 10 µM,< 1 µM
"COc1ccc2c(c1)CCN(C(=O)c1c(O)cc(O)c(C)c1OCc1ccccc1)C2 [Example 41, (2-benzyloxy-4,6-dihydroxy-3-methyl-phenyl)-(6-methoxy-3,4-dihydro-1H-isoquinolin-2-yl)methanone]",> 10 µM,< 1 µM
"Cc1c(O)cc(O)c(C(=O)N2CCc3ccncc3C2)c1OCc1ccccc1 [Example 42, (2-benzyloxy-4,6-dihydroxy-3-methyl-phenyl)-(3,4-dihydro-1H-2,7-naphthyridin-2-yl)methanone]",> 10 µM,1 to 10 µM
"Cc1c(O)cc(O)c(C(=O)N2CCc3cnccc3C2)c1OCc1ccccc1 [Example 43, (2-benzyloxy-4,6-dihydroxy-3-methyl-phenyl)-(3,4-dihydro-1H-2,6-naphthyridin-2-yl)methanone]",> 10 µM,1 to 10 µM
"Cc1cccc(COc2c(C)c(O)cc(O)c2C(=O)N2CCc3ccccc3C2)c1 [Example 44, 3,4-dihydro-1H-isoquinolin-2-yl-[4,6-dihydroxy-3-methyl-2-(m-tolylmethoxy)phenyl]methanone]",> 10 µM,< 1 µM
"COc1ccc2c(c1)CCN(C(=O)c1c(O)cc(O)c(C)c1OCc1ccccn1)C2 [Example 47, [4,6-dihydroxy-3-methyl-2-(2-pyridylmethoxy)phenyl]-(6-methoxy-3,4-dihydro-1H-isoquinolin-2-yl)methanone]",> 10 µM,> 10 µM
"Cc1c(O)cc(O)c(C(=O)N2CCc3ccccc3C2)c1OCc1ccc(F)cc1 [Example 48, 3,4-dihydro-1H-isoquinolin-2-yl-[2-[(4-fluorophenyl)methoxy]-4,6-dihydroxy-3-methyl-phenyl]methanone]",> 10 µM,< 1 µM
"CN1CCN(Cc2ccc3c(c2)CN(C(=O)c2c(O)cc(O)cc2OCc2ccccc2)C3)CC1 [Example 49, (2-(benzyloxy)-4,6-dihydroxyphenyl)(5-((4-methylpiperazin-1-yl)methyl)isoindolin-2-yl)methanone]",1 to 10 µM,< 1 µM
"Cc1c(O)cc(O)c(C(=O)N2Cc3cccc(N)c3C2)c1OCc1ccccc1 [Example 50, (4-aminoisoindolin-2-yl)(2-(benzyloxy)-4,6-dihydroxy-3-methylphenyl)methanone]",> 10 µM,< 1 µM
"C=Cc1cccc2c1CN(C(=O)c1c(O)cc(O)c(C)c1OCc1ccccc1)C2 [Example 51, (2-(benzyloxy)-4,6-dihydroxy-3-methylphenyl)(4-vinylisoindolin-2-yl)methanone]",> 10 µM,< 1 µM
"COc1ccc2c(c1)CN(C(=O)c1c(O)cc(O)c(C)c1OCc1ccccc1)CC2 [Example 52, (2-(benzyloxy)-4,6-dihydroxy-3-methylphenyl)(7-methoxy-3,4-dihydroisoquinolin-2(1H)-yl)methanone]",> 10 µM,< 1 µM
"Cc1c(O)cc(O)c(C(=O)N2CCc3cccnc3C2)c1OCc1ccccc1 [Example 53, (2-(benzyloxy)-4,6-dihydroxy-3-methylphenyl)(5,8-dihydro-1,7-naphthyridin-7(6H)-yl)methanone]",> 10 µM,1 to 10 µM
"Cc1c(O)cc(O)c(C(=O)N2CCc3ncccc3C2)c1OCc1ccccc1 [Example 54, (2-(benzyloxy)-4,6-dihydroxy-3-methylphenyl)(7,8-dihydro-1,6-naphthyridin-6(5H)-yl)methanone]",> 10 µM,1 to 10 µM
"Cc1c(O)cc(O)c(C(=O)N2CCc3ncncc3C2)c1OCc1ccccc1 [Example 55, (2-(benzyloxy)-4,6-dihydroxy-3-methylphenyl)(7,8-dihydropyrido[4,3-d]pyrimidin-6(5H)-yl)methanone]",> 10 µM,1 to 10 µM
"Cc1c(O)cc(O)c(C(=O)N2CCc3cncnc3C2)c1OCc1ccccc1 [Example 56, (2-(benzyloxy)-4,6-dihydroxy-3-methylphenyl)(5,8-dihydropyrido[3,4-d]pyrimidin-7(6H)-yl)methanone]",> 10 µM,1 to 10 µM
"Cc1c(O)cc(O)c(C(=O)N2CCc3ccccc3C2)c1OCc1ccn(C)n1 [Example 57, (3,4-dihydroisoquinolin-2(1H)-yl)(4,6-dihydroxy-3-methyl-2-((1-methyl-1H-pyrazol-3-yl)methoxy)phenyl)methanone]",> 10 µM,> 10 µM
"O=C(c1c(O)cc(O)cc1OCc1ccccc1)N1CCc2ccccc2C1 [Example 58, (2-(benzyloxy)-4,6-dihydroxyphenyl)(3,4-dihydroisoquinolin-2(1H)-yl)methanone]",1 to 10 µM,1 to 10 µM
"Cc1c(O)cc(O)c(C(=O)N2Cc3ccccc3C2)c1OCc1ccccc1 [Example 59, (2-(benzyloxy)-4,6-dihydroxy-3-methylphenyl)(isoindolin-2-yl)methanone]",> 10 µM,< 1 µM
"Cc1c(O)cc(O)c(C(=O)N2CCc3ccc(CN(C)C)cc3C2)c1OCc1ccccc1 [Example 60, (2-(benzyloxy)-4,6-dihydroxy-3-methylphenyl)(7-((dimethylamino)methyl)-3,4-dihydroisoquinolin-2(1H)-yl)methanone]",> 10 µM,< 1 µM
"Cc1c(O)cc(O)c(C(=O)N2CCc3cc(CN(C)C)ccc3C2)c1OCc1ccccc1 [Example 61, (2-(benzyloxy)-4,6-dihydroxy-3-methylphenyl)(6-((dimethylamino)methyl)-3,4-dihydroisoquinolin-2(1H)-yl)methanone]",> 10 µM,< 1 µM
"Cc1c(O)cc(O)c(C(=O)N2Cc3ccccc3C[C@H]2CO)c1OCc1ccccc1 [Example 62, (S)-(2-(Benzyloxy)-4,6-dihydroxy-3-methylphenyl)(3-(hydroxymethyl)-3,4-dihydroisoquinolin-2(1H)-yl)methanone]",> 10 µM,1 to 10 µM
